For two compounds, inhibition and IC50 results are on record in patent publication US20210238170A1, “5,5-Difluoro- and 5-Fluoro-5-Methyl-C-Glycoside Derivatives Useful As Dual SGLT1 / SGLT2 Modulators” (Janssen Pharmaceutica NV, priority 2018, published 2021).

As usually defined, the IC50 is the concentration at which inhibition is half-maximal. A higher IC50 goes with a need for much substance.

The target in this assay is T1, human SGLT2 (Homo sapiens, UniProt P31639).
T1 construct: expressed in transfected cells
T1 sequence (P31639 1-672): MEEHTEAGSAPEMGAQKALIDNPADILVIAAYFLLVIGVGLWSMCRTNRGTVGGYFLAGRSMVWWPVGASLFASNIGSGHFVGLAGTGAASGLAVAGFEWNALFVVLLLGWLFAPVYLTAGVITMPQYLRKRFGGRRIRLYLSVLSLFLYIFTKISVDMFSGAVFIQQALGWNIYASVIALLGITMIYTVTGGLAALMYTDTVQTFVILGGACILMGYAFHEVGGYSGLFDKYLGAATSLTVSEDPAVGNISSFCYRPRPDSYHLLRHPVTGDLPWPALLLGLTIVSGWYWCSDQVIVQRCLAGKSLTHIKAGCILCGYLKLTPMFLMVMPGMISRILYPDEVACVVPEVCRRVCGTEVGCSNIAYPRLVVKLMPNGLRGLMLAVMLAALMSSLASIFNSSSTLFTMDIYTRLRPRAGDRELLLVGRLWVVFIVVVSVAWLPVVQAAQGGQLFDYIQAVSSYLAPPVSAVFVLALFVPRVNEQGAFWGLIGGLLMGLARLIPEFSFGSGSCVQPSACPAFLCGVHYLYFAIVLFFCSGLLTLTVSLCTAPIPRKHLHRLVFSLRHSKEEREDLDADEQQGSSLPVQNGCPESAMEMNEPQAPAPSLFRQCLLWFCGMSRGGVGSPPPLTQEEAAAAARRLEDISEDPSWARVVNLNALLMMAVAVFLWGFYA
In words: SGLT2 in vitro assay: Na-dependent 14C-AMG uptake in CHO-K1 cells stably expressing human SGLT2. It is filed as cell-based. Conditions: CHO-K1 cells stably expressing human SGLT2, 14C-AMG uptake; for inhibition at 0.3 µM: read-out: SGLT2 % Inh @ 0.3 μM; for IC50: compounds of formula (I) where R0 is fluoro. The method, boiled down:
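CHO-K1 cells stably expressing human SGLT1 or SGLT2, induced with 10 mM Na-butyrate for 24 h. Compounds (0.001–10 μM) in Na+-containing HEPES/Tris buffer pH 7.4 were applied for 10 min, then 14C-AMG ([…]) for 2 h at 37°C; Na-dependent uptake read by scintillation; %-inhibition or IC50.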

`COc1ccc(Cc2cc([C@@H]3O[C@H](CO)C(F)(F)[C@H](O)[C@H]3O)c(O)cc2Cl)cc1` [Compound 81, (2S,3R,4R,6R)-2-(4-chloro-2-hydroxy-5-(4-methoxybenzyl)phenyl)-5,5-difluoro-6-(hydroxymethyl)-tetrahydro-2H-pyran-3,4-diol]: the inhibition at 0.3 µM worked out at 87.4% and the IC50 worked out at 1.1 nM.
For `COc1cc(O)c([C@@H]2O[C@H](CO)C(F)(F)[C@H](O)[C@H]2O)cc1Cc1ccc2c(c1)CCCO2` [Compound 44, (2S,3R,4R,6R)-2-(5-(chroman-6-ylmethyl)-2-hydroxy-4-methoxyphenyl)-5,5-difluoro-6-(hydroxymethyl)tetrahydro-2H-pyran-3,4-diol] the same measures were 90.1% and 1.3 nM.
